By Ki is commonly meant a measure of affinity in units of concentration, obtained from inhibition or displacement.

Experiment [1] relates to C57BL/6 mice. The experiment is described as follows: diabetic (STZ) high-fat diet mouse NASH model. The class given is in vivo. The conditions noted are these: 10 mg/kg PO daily; for fibrosis scores: vs control group. The protocol: Timed pregnant female C57BL/6 mice (Jackson Laboratories, USA) were obtained and housed with a cardboard hut for birthing and nursing of pups (enrichment), in an AAALAC-accredited vivarium, prefilled with corn cob bedding on a 12-hour light-dark at 68-74° F. and 30-70% humidity. Pregnant female mice were fed water and a standard rodent diet (Teklad irradiated 2918) ad libitum consisting of 18% protein, 5% fat, and 5% fiber. Three days post birth, pups from all litters received streptozotocin (STZ), i.p. at 200 mg/kg, to induce a mild to moderate hyperglycemia and insulin insufficiency. Random blood glucose was measured at weaning when pups were 25 days old. At weaning, mice were fed water and a standard rodent diet (Teklad irradiated 2918) ad libitum consisting of 18% protein, 5% fat, and 5% fiber. At 4 weeks of age, male mice were randomized into 7 study groups based on a random blood glucose (RBG) between 200-750 mg/dl and were switched from the standard rodent diet to the modified high fat diet (HFD), Research Diets D09100310 for the remainder of the study. Following 3 weeks of HFD feeding, test article and vehicle control dose administration was initiated and continued for up to 9 weeks. Body weights were measured at least twice a week from dose initiation through study end/termination. HFD was changed weekly with the old food being discarded. Animals had random blood glucose measured every 3 weeks and at termination. Clinical observations were performed daily from receipt/birth and continued through study end. Compound 1 and rimonabant were stored at −20° C. prior to drug preparation. Following three weeks of modified diet feeding, dose initiation of the compounds began and continued for up to 9 weeks. Test compounds were dissolved in 2% dimethyl sulfoxide, followed by 8% Tween-80 and 8% propylene glycol. Saline was added slowly to this solution with sonication prior to administration. Animals were dosed at 10 mg/kg via oral gavage (PO), daily, for up to 9 weeks.
Livers were scored for both NAS and NASH parameters. […] Fibrosis was observed across all study groups. […] Lobular inflammation was present across all NASH study groups thus indicating inflammatory cell infiltration. Following 9 weeks of treatment with Compound 1, lobular inflammation was reduced.

The target in experiment [2] is T1, CB1 cannabinoid receptor (Homo sapiens, UniProt P21554).
T1 construct: expressed in transfected cells; host or cells: HEK293
The experiment is described as follows: CB1 competition-equilibrium binding using [3H]CP-55,940. The conditions noted are these: competition binding with [3H]CP-55,940; FIG. 1: hCB1-HEK292 cells; read-out: CB1 cannabinoid receptor binding affinity (Ki). Here is the method: (§1) HEK293 cells expressing hCB1, hCB2 or mCB2 receptor are used for membrane preparations according to the method described in J Neurochem 1999, 72, (5), 2032-8, herein incorporated by reference in its entirety. The resulting pellet is resuspended in 10 mM Tris-chloride, pH 7.4 with 5 mM MgCl2 and 2 mM EDTA (TME), and stored at −80° C. for no longer than two months. Protein content is assayed by using the Bio-Rad DC protein assay according to the manufacturer's protocol.
Frozen rat brains (CB1 source) are obtained from Pel-Freeze Biologicals (Rogers, Ak.) and stored at −80° C. until use. […]
(§2) The compound was tested for its ability to bind to CB1 and CB2 receptors using rat brain or HEK293 cell membranes expressing hCB2 and mCB2 membrane preparations, respectively, as described in J Med Chem 1999, 42, (4), 769-776, J Med Chem 1994, 37, (23), 3867-70 and Life Sci 1995, 56, (23-24), 1957-62 (each herein incorporated by reference in its entirety) via competition-equilibrium binding using [^3H]CP-55,940. The results were analyzed using nonlinear regression to determine the actual IC50 of the ligand (Prizm by GraphPad Software, Inc.) and the Ki values are calculated from the IC50 as described in Biochemical Pharmacology 1973, 22, (23), 3099-3108; herein incorporated by reference in its entirety.

Experiment [3] deals with CB2 cannabinoid receptor (UniProt P34972). Briefly: CB2 competition-equilibrium binding using [3H]CP-55,940. The conditions noted are these: competition binding with [3H]CP-55,940; read-out: CB2 cannabinoid receptor binding affinity (Ki). Here is the method: as §1, §2
Experiment [4] addresses T2, CB1 (Mus musculus, UniProt P47746).
T2 construct: tissue Charles River; host or cells: whole animal, male CD-1 mice
Briefly: in vivo CB1 antagonism (hypothermia) in male CD1 mice. The conditions noted are these: 10 mg/kg i.p. test compound, 30 mg/kg Δ9-THC, male CD-1 mice, rectal temperature. Here is the method:
Male CD-1 mice (Charles River, Wilmington, Mass., USA) aged 4-6 weeks weighing between 25-35 gm were chosen for in vivo CB1 antagonism testing. The mice were housed 4 per cage with free access to food and water. The temperature of the vivarium was 25° C. with a non-reversed 12 hrs light/dark cycle (lights on 7 am). Mice were habituated to the vivarium for at least one week before any experiments were performed. All experimental procedures were pre-approved by The Animal Care and Use Committee of Northeastern University, Boston, Mass., USA. The “Principles of Animal Laboratory Care” (National Institute of Health 1996) was followed. The test compound (10 mg/kg) was dissolved in 4% dimethyl sulfoxide, followed by 8% Tween-80 and 8% propylene glycol. Saline was added slowly to this solution with sonication prior to administration. Δ^9-THC was initially dissolved in 2% dimethyl sulfoxide, followed by 4% Tween-80 and 4% propylene glycol. Saline was added slowly to this drug solution with sonication prior to administration. All administrations were i.p. at a volume of 10 ml/kg. […] Core temperature was measured using a rectal probe of a digital laboratory thermometer, RET-3-ISO, type T thermocouple (Physitemp Instruments Inc., Clifton, N.J.). The probe was inserted 2 cm into the rectum for ≈20 to 30 seconds at which time the rectal temperature readings had stabilized.

“And” between values parts separate entries of the source, which are not always exact repeats. Equal entries are not always repeated.

T1 sequence (P21554 whole entry): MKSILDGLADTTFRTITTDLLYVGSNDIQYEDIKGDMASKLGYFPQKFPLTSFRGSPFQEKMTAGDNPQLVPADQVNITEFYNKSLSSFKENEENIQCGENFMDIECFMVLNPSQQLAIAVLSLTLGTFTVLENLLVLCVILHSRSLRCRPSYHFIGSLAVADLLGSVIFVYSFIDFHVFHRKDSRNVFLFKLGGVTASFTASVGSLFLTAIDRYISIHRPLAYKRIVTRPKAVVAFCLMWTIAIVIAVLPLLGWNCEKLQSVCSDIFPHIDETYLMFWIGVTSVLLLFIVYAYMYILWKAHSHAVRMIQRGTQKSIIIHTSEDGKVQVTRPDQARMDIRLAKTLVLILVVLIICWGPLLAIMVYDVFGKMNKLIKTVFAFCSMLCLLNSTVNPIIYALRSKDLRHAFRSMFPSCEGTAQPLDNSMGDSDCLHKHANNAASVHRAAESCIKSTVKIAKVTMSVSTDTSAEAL
T2 sequence (P47746 whole entry): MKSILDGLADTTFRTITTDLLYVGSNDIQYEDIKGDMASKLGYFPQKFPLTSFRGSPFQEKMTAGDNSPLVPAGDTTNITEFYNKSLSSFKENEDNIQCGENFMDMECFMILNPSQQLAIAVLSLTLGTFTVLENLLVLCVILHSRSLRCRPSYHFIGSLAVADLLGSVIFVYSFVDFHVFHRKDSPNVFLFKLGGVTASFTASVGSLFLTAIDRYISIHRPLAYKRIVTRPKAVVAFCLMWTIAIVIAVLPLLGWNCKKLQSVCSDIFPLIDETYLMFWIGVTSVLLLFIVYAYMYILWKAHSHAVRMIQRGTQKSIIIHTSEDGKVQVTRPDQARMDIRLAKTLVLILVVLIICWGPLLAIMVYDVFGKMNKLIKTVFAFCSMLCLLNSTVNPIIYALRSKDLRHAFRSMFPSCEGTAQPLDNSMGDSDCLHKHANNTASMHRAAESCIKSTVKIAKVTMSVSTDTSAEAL

Take `Cc1c(C(=O)NN2CCCCC2)nn(-c2ccc(Cl)cc2Cl)c1-c1ccc(Cl)cc1` [rimonabant, 5-(4-chlorophenyl)-1-(2,4-dichlorophenyl)-4-methyl-N-(piperidin-1-yl)-1H-pyrazole-3-carboxamide, reference compound]: in experiment [1] (9 weeks of treatment, liver), the steatosis entry was “decreased” and the fibrosis scores entry is “statistically significant when compared to the control group”.
In the case of `Cc1c(C(=O)NN2CCS(=O)(=O)CC2)nc(-c2ccc(Cl)cc2Cl)n1-c1ccc(C#CCCC#N)cc1` [Compound 1, 1-(4-(4-cyanobut-1-yn-1-yl)phenyl)-2-(2,4-dichlorophenyl)-N-(1,1-dioxidothiomorpholino)-5-methyl-1H-imidazole-4-carboxamide], the Ki in experiment [2] is 1 nM and ~1 nM. In experiment [3], the inhibition constant (Ki) is over 1000 nM. Moreover, the “antagonism of hypothermic effects induced by the CB1 agonist Δ9-THC” value in experiment [4] is “inability of 10 mg/kg of compound 1 to antagonize the hypothermic effects”. For the same compound, in experiment [1] (9 weeks of treatment, liver), the lobular inflammation result was “reduced”, the steatosis result is on record as “decreased” and the fibrosis scores entry is “statistically significant when compared to the control group”. For the same compound, the “inflammation and fibrosis (overall)” value in experiment [1] (up to 9 weeks) was “markedly attenuated or delayed the inflammation and fibrosis”. For the same compound, the animal survival entry in experiment [1] (up to 9 weeks, compared to rimonabant) was “increased animal survival as compared to rimonabant”.

These data come from patent US20230234928A1, “Novel Compounds for Treating Fibrosis and Inflammatory Conditions” (MAKScientific, LLC, priority 2020, published 2023).
